In brackets after ≈: the same amount, converted by molar mass. Like-named read-outs stand apart in the source and are kept apart here.
Assays:
[1] = tested on: Xanthomonas axonopodis; test: Volatile assay against bacterial pathogens, MBC (Example 12); format: cell-based; details: X. axonopodis; headspace concentration; 48 hours at 23 C
Procedure: (§1) 12-Well (6.5 mL volume per well) microtiter plates are used for the in vitro inhibition assay for volatile antimicrobial Compound A against additional bacterial pathogens. A 3-mL volume of Nutrient agar is added to each well and allowed to dry before introducing the pathogen. Escherichia coli, Pectobacterium carotovorum, Xanthomonas axonopodis and Salmonella enterica cell suspensions are adjusted to an optical density of 0.2 to 0.35, and further diluted 1/10, and 15 μL is pipetted to the center of each well and tilted to distribute uniformly. A Whatman #1 filter paper (CAT 1001-0155) is placed on the underside of a polyethylene PCR plate sealing film. […] The films with the treated disks are then applied over the inoculated plates and sealed. Plates are inverted, and incubated at 23° C. for 48 hours. After the incubation period, the bacteria colonies are dislodged in sterile water containing tween 80 (0.001%) and the optical density (OD; 600 nm) is determined. Results are summarized in Table 6, where the headspace concentration required to control at least 80% of bacterial growth is reported.

[2] = tested on: Salmonella enterica; test: as above; format: cell-based; details: S. enterica; headspace concentration; 48 hours at 23 C
Procedure: as §1

[3] = tested on: Escherichia coli; test: as above; format: cell-based; details: E. coli; headspace concentration; 48 hours at 23 C
Procedure: as §1

[4] = tested on: Pectobacterium carotovorum; test: as above; format: cell-based; details: P. carotovorum; headspace concentration; 48 hours at 23 C
Procedure: as §1

[5] = tested on: C. albicans; test: In vitro volatile assay, yeast infection species (Example 27); format: cell-based; details: Candida albicans
Procedure: More specifically, growth inhibition of yeast infection fungal species C. albicans and C. krusei (or I. orientalis) by volatile treatment of Compound 10 was assessed via a volatile assay.
Volatile assay: 6-well (16.5 mL volume per well) microtiter plates are used in an in vitro inhibition assay for Compound 10 (i.e., Compound A). A 7.5-mL volume of half strength PDA is added to each well. After drying, a mycelial plug (5 mm diameter) is aseptically obtained from actively growing cultures of C. albicans and C. krusei (or I. orientalis) and placed at the center of the plate with the mycelial side in contact with the agar. A Whatman #1 filter disk (Cat. No. 1001-325) is placed, in duplicate, on the underside of a polyethylene PCR plate sealing film. […] The acetone/methanol is permitted to evaporate for 5 minutes. The headspace around the inoculum is then sealed inside the well by the film with the adhering disk containing the fungicide and incubated inverted for 5 days at 28° C.

[6] = tested on: Penicillium expansum; test: Blue mold on apple, contact assay; format: in vivo
Procedure: Contact Assay: […] A 250 mL solution of each concentration is used to dip two inoculated apples, one minute per apple, performed in triplicate per rate. The dipped fruits are then placed back into the […] are then placed in a secondary container and incubated at 1° C. for 5 days. After incubation, fruits are evaluated for diameter (mm) of rot development (browning) up to 7 days at 21° C.

[7] = tested on: Penicillium digitatum; test: Green mold on orange, contact assay (Example 25); format: in vivo; details: Contact (dip); rate not given; day 3 at 21 C after 5 days at 1 C
Procedure: A 250 mL solution of each concentration is used to dip two inoculated fruits, one minute per fruit, performed in triplicate per rate. The dipped fruits are then placed back into the clamshells and then into the SnapWare container and incubated at 1° C. for 5 days. […] Volatile application of Compound A results in excellent inhibition of browning and sporulation, whereas all other active ingredients result in no or little inhibition.

[8] = tested on: Botrytis cinerea; test: Volatile application to strawberries in clamshells, treated clamshell vs fruit transfer (Example 21); format: in vivo; details: 0.1 mg/L headspace
Procedure: Eight strawberries (per repetition, in triplicate) are placed in an industry standard 1-lb PET clamshell with the stem-end facing down.
Compound A is then mixed with acetone and 100 μL of the mixture is pipetted into a small glass tube. […] Compound A is then introduced into the cabinet containing the clamshell by using the sublimation device set at 180° C. to achieve a final headspace concentration of 0.1 mg/L and equilibrated at 1° C. for 0.5 or 1 hour.
After incubation, both clamshells are removed from the treatment chamber. One clamshell is undisturbed while the fruit from the second clamshell are immediately transferred into a new untreated clamshell. All clamshells are then held at 1° C. for 5 days and then evaluated during an additional 5 days at 21° C. During the 5 days at 21° C., the fruits are evaluated for gray mold severity (scale 0 to 4, with ≤1 indicating marketable fruit and 4 indicating ≥50% of fruit surface covered by pathogen). […] The treated clamshell produces marketable fruit up to 3 days with 0.5 hour treatment (0.1), whereas fruits in new clamshells are unmarketable (2.7). Similarly, the treated clamshell produces marketable fruit up to 5 days with 1 hour treatment (0.4), whereas fruits in new clamshells are unmarketable (1.6). Thus, treatments where berries remain in the treated clamshells have the best level of control due to the compound further volatilizing over time off of the clamshell surface.

[9] = tested on: Glomerella cingulata; test: Volatile MIC assay (Example 11); format: cell-based; details: Colletotrichum gloeosporioides, G. cingulata
Procedure: A 3-mL volume of full-strength Potato Dextrose Agar (PDA) is added to each well. After cooling, 1 μL of 1×10^5 spores per mL of Botrytis cinerea, Penicillium expansum, Alternaria alternata, Glomerella cingulata, Penicillium digitatum, Monilinia fruticola, Aspergillus brasiliensis, Colletotrichum acutatum, Fusarium sambucinum, Phytophthora capsici, Geotrichum candidum, Aspergillus niger, Diplodia gossypina or Diaporthe citrii suspension is spotted onto the center of the agar. […] The headspace around the inoculum is then sealed inside the well by the film with the adhering disk containing the fungicide by inverting the plates over the treated disks and sealing to prevent any of the chemical from flaking from the disk and falling onto the inoculated agar. After 3 days of storage at 23° C., cultures are evaluated for percent growth relative to control.

In the case of OB1OCc2cc(F)ccc21 [Compound A, 5-fluoro-1,3-dihydro-1-hydroxy-2,1-benzoxaborole], the “Rate (mg/L) offering at least 80% control” value (“Rate … at least 80% control” for short) [1] is reported as 4.5 mg/L, the “Rate … at least 80% control” value [2] is reported as 17.9 mg/L and the “Rate … at least 80% control” value [3] is reported as 35.7 mg/L. For the same compound, the “Rate … at least 80% control” value [4] was 2.2 mg/L, the inhibition at 0.017 µg/mL ([5]; 0.017 mg/L, read-out: Growth Inhibition (%) C. albicans) was 2% and the inhibition at 0.035 µg/mL ([5]; 0.035 mg/L, read-out: Growth Inhibition (%) C. albicans) was 1.6%. For the same compound, the inhibition at 0.07 µg/mL ([5]; 0.07 mg/L, read-out: Growth Inhibition (%) C. albicans) was 7.9%, the inhibition at 0.1 µg/mL ([5]; 0.1 mg/L, read-out: Growth Inhibition (%) C. albicans) was 11.9% and the inhibition at 0.3 µg/mL ([5]; 0.3 mg/L, read-out: Growth Inhibition (%) C. albicans) was 18.5%. For the same compound, the inhibition at 0.6 µg/mL ([5]; 0.6 mg/L, read-out: Growth Inhibition (%) C. albicans) was 22.2%, the inhibition at […] ([5]; 1.1 mg/L, read-out: Growth Inhibition (%) C. albicans) was 40.2% and the inhibition at […] ([5]; 2.2 mg/L, read-out: Growth Inhibition (%) C. albicans) was 100%. It also gave an inhibition at […] ([5]; 4.5 mg/L, read-out: Growth Inhibition (%) C. albicans) of 100%, an inhibition at […] ([5]; 8.9 mg/L, read-out: Growth Inhibition (%) C. albicans) of 100% and an MIC ([5]; 120 h, 100% control, 5 days at 28 C, read-out: minimum inhibitory concentration (MIC) for C. albicans) of 2.2 µg/mL (≈ 14.5 µM). The “Browning Rot (diameter; mm)” value ([6]; 2 mg/L, Day 0) was 0.0 mm, the “Browning Rot (diameter; mm)” value ([6]; 2 mg/L, Day 2) was 3.7 mm and the “Browning Rot (diameter; mm)” value ([6]; 2 mg/L, Day 4) was 15.5 mm. The “Browning Rot (diameter; mm)” value ([6]; 2 mg/L, Day 7) was 23.3 mm, the “Browning Rot (diameter; mm)” value ([6]; 10 mg/L, Day 0) was 0.0 mm and the “Browning Rot (diameter; mm)” value ([6]; 10 mg/L, Day 2) was 2.2 mm. The “Browning Rot (diameter; mm)” value ([6]; 10 mg/L, Day 4) was 8.0 mm, the “Browning Rot (diameter; mm)” value ([6]; 10 mg/L, Day 7) was 20.2 mm and the “Browning Rot (diameter; mm)” value ([6]; 50 mg/L, Day 0) was 0.0 mm. For the same compound, the “Browning Rot (diameter; mm)” value ([6]; 50 mg/L, Day 2) was 0.7 mm, the “Browning Rot (diameter; mm)” value ([6]; 50 mg/L, Day 4) was 5.7 mm and the “Browning Rot (diameter; mm)” value ([6]; 50 mg/L, Day 7) was 15.0 mm. The “Browning Rot (diameter; mm)” value ([6]; 250 mg/L, Day 0) was 0.0 mm, the “Browning Rot (diameter; mm)” value ([6]; 250 mg/L, Day 2) was 0.0 mm and the “Browning Rot (diameter; mm)” value ([6]; 250 mg/L, Day 4) was 4.3 mm. The “Browning Rot (diameter; mm)” value ([6]; 250 mg/L, Day 7) was 11.8 mm, the “Orange Sporulation (mm)” value [7] was >50 mm and the “Disease Severity (0 to 4)” value ([8]; Treated clamshell, treatment time 0.5 hour, Day 1) was 0.0. For the same compound, the “Disease Severity (0 to 4)” value ([8]; Treated clamshell, treatment time 0.5 hour, Day 3) was 0.1, the “Disease Severity (0 to 4)” value ([8]; Treated clamshell, treatment time 0.5 hour, Day 5) was 2.3 and the “Disease Severity (0 to 4)” value ([8]; Treated clamshell, treatment time 1 hour, Day 1) was 0.0. For the same compound, the “Disease Severity (0 to 4)” value ([8]; Treated clamshell, treatment time 1 hour, Day 3) was 0.0, the “Disease Severity (0 to 4)” value ([8]; Treated clamshell, treatment time 1 hour, Day 5) was 0.4 and the “Disease Severity (0 to 4)” value ([8]; Untreated clamshell (fruit transfer), treatment time 0.5 hour, Day 1) was 0.0. The “Disease Severity (0 to 4)” value ([8]; Untreated clamshell (fruit transfer), treatment time 0.5 hour, Day 3) was 2.7, the “Disease Severity (0 to 4)” value ([8]; Untreated clamshell (fruit transfer), treatment time 0.5 hour, Day 5) was 3.4 and the “Disease Severity (0 to 4)” value ([8]; Untreated clamshell (fruit transfer), treatment time 1 hour, Day 1) was 0.0. For the same compound, the “Disease Severity (0 to 4)” value ([8]; Untreated clamshell (fruit transfer), treatment time 1 hour, Day 3) was 0.1, the “Disease Severity (0 to 4)” value ([8]; Untreated clamshell (fruit transfer), treatment time 1 hour, Day 5) was 1.6 and the MIC [9] was 17.9 µg/mL (≈ 118 µM).
